Measurements published in the supplement of paper PMC10307832.

Key:
Test in all cases: relative viability (nuclei count vs DMSO), 5 days (fraction); higher = more cells survive
[1] = compound: CCn1c(-c2nonc2N)nc2c(C#CC(C)(C)O)ncc(OC[C@H]3CCCNC3)c21 + COc1cccc2cc(-c3nc([C@H]4CC[C@H](C(=O)O)CC4)n4ncnc(N)c34)[nH]c12 [OSI-027] (partner 0.5 µM)
In short: (§1)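 Relative viability divides the nuclei count in treated wells by that in vehicle wells. Lung cancer cell lines were seeded in 1536-well plates, dosed by pin tool the next day, and fixed and stained after 5 days in one step with final 0.05% Triton X-100, 1% formaldehyde and 1 ug/ml Hoechst. Dosing was a single drug or a fixed anchor-drug dose plus five library-drug doses (not always all listed) in √10 steps, and values are medians of duplicate plates imaged at 4×.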

[2] = compound: CCOC1=CC=CC=C1N=NC2=C(NN(C2=O)C3=NC(=CS3)C4=CC=CC=C4)C [BAM7] + N=C(N)NC(=N)NCCc1ccccc1 [Phenformin] (partner 250 µM)
In short: as §1

[3] = compound: CCn1c(-c2nonc2N)nc2c(C#CC(C)(C)O)ncc(OC[C@H]3CCCNC3)c21 + CC(=O)c1c(C)c2cnc(Nc3ccc(N4CCNCC4)cn3)nc2n(C2CCCC2)c1=O [Palbociclib] (partner 0.5 µM)
In short: as §1

[4] = compound: CCn1c(-c2nonc2N)nc2c(C#CC(C)(C)O)ncc(OC[C@H]3CCCNC3)c21 + CCNC(=O)c1noc(-c2cc(C(C)C)c(O)cc2O)c1-c1ccc(CN2CCOCC2)cc1 [Luminespib] (partner 0.01 µM)
In short: as §1

UMC-11
relative viability ([1]; first compound 0.01 µM): 0.512
relative viability ([1]; first compound 0.03162 µM): 0.489
relative viability ([1]; first compound 0.1 µM): 0.515
relative viability ([1]; first compound 0.3162 µM): 0.423
relative viability ([1]; first compound 1 µM): 0.496
relative viability ([2]; first compound 0.5 µM): 0.336
relative viability ([2]; first compound 5 µM): 0.371
relative viability ([2]; first compound 15.81 µM): 0.311
relative viability ([2]; first compound 50 µM): 0.312
relative viability ([3]; first compound 0.01 µM): 0.292
relative viability ([3]; first compound 0.03162 µM): 0.291
relative viability ([3]; first compound 0.1 µM): 0.305
relative viability ([3]; first compound 0.3162 µM): 0.329
relative viability ([3]; first compound 1 µM): 0.339
relative viability ([4]; first compound 0.01 µM): 0.97
relative viability ([4]; first compound 0.03162 µM): 0.922
relative viability ([4]; first compound 0.1 µM): 0.991
relative viability ([4]; first compound 0.3162 µM): 0.956
relative viability ([4]; first compound 1 µM): 1
